Measurements reported in publication PMC3559867, “Metabolites of Ginger Component [6]-Shogaol Remain Bioactive in Cancer Cells and Have Low Toxicity in Normal Cells: Chemical Synthesis and Biological Evaluation” (PLoS ONE, 2013).

Columns and labels:
[1] = tested on: CCD-18Co human normal fibroblast colon cells; assay: MTT cytotoxicity, normal colon cells CCD-18Co; type: cell-based; conditions: 24 h treatment, toxicity to normal cells
Protocol: (§1) Cell growth inhibition was determined by a MTT colorimetric assay. Human colon cancer cells HCT-116, human lung cancer cells H-1299, human colon fibroblast cells CCD-18Co, and human lung fibroblast cells IMR-90 were plated in 96-well microtiter plates with 3000 cells/well and allowed to attach for 24 h at 37°C. […] After the cells were cultured for 24 h, the medium was aspirated and cells were treated with 200 µL fresh medium containing 2.41 mmol/L MTT. […] The reading reflected the number of viable cells and was expressed as a percentage of viable cells in the control. Both HCT-116 and H-1299 cells were cultured in McCoy’s 5A medium. CCD-18Co and IMR-90 cells were cultured in Eagle’s modified essential medium (EMEM). All of the above media were supplemented with 10% fetal bovine serum, 1% penicillin/streptomycin, and 1% glutamine, and the cells were kept in a 37°C incubator with 95% humidity and 5% CO2.

[2] = tested on: H-1299 human lung cancer cells; assay: MTT growth inhibition, H-1299; type: cell-based; conditions: 24 h treatment, 0 to 80 µM
Protocol: as §1

[3] = tested on: IMR-90 human normal lung cells; assay: MTT cytotoxicity, normal lung cells IMR-90; type: cell-based; conditions: 24 h treatment, toxicity to normal cells
Protocol: as §1

[4] = tested on: HCT-116 human colon cancer cells; assay: MTT growth inhibition, HCT-116; type: cell-based; conditions: 24 h treatment, 0 to 80 µM
Protocol: as §1

H-1299 cells = assay: TUNEL apoptosis assay, H-1299; type: cell-based, human; conditions: H-1299, 24 hours of incubation, 20 or 40 µM, versus DMSO; M2 not significant at 20 µM
Protocol: (§2) HCT-116 and H1299 cells were seeded in 6-well plates at 1.10^5 cells/well and incubated at 37°C in 5% CO2 incubator. After 24 hours, fresh media supplemented with DMSO (control), [6]-shogaol, M2, M6, or M13 metabolites (20 µM or 40 µM) were added to the wells. After 6 or 24 hours incubation at 37°C in 5% CO2 incubator, cells were washed and pre-treated for 15 min at room temperature with a solution of 20 µg/ml proteinase K. Cells were then washed twice with phosphate buffer saline pH 7.4 (PBS) and fixed for 10 min at room temperature using 10% neutral formaldehyde solution. After 2 washes in ddH2O, cells were resuspended in 100 µL ddH2O and applied on silanized microscope slides. Slides were incubated overnight at 37°C, and washed twice with PBS. TUNEL assay was then carried out according to the manufacturer’s protocol. Cells were observed under 400X power using a Zeiss microscope A1 (Thornwood, NY). 10 fields per slide were evaluated, and TUNEL+ cells (with brown coloration in the nucleus) were expressed as a percentage of the total number of cells contained in a field.

HCT-116 cells = assay: TUNEL apoptosis assay, HCT-116; type: cell-based, human; conditions: 20 or 40 µM, versus DMSO
Protocol: as §2

[5] = HCT-116, 24 hours of incubation

SMILES | IC50 ([2]; Homo sapiens, NCI-H1299, 24 h) [µM] | IC50 [4] [µM] | IC50 [2] [µM] | IC50 [1] [µM] | IC50 [3] [µM] | induction of apoptosis (TUNEL positive cells) (H-1299 cells) | induction of apoptosis (TUNEL positive cells) (HCT-116 cells; HCT-116, 6 hours of incubation) | induction of apoptosis (TUNEL positive cells) (HCT-116 cells; [5])
CCCCCC(CC(O)CCc1ccc(O)c(OC)c1)SCC(N)C(=O)O (stereo not drawn) [M1, 5-cysteinyl-M6] | > 100 | > 100 | – | > 100 | > 100 | – | – | –
CCCCCC(CC(=O)CCc1ccc(O)c(OC)c1)SCC(N)C(=O)O (stereo not drawn) [M2, 5-cysteinyl-[6]-shogaol] | 25.8 | 24.4 | 24.4 | 99.2 | 98.3 | Significant apoptosis | significantly higher levels of apoptosis | Significant apoptosis
CCCCCC(CC(O)CCc1ccc(O)c(OC)c1)SCC(NC(C)=O)C(=O)O (stereo not drawn) [M4, 5-N-acetylcysteinyl-M6] | > 100 | > 100 | – | > 100 | > 100 | – | – | –
CCCCCC(CC(=O)CCc1ccc(O)c(OC)c1)SC[C@H](NC(C)=O)C(=O)O (stereo partly drawn) [M5, 5-N-acetylcysteinyl-[6]-shogaol] | 72.6 | 54.3 | 54.3 | > 100 | > 100 | – | – | –
CCCCCC=CC(O)CCc1ccc(O)c(OC)c1 (stereo not drawn) [M6, 1-(4'-hydroxy-3'-methoxyphenyl)-4-decen-3-ol] | 61.3 | 68.8 | 68.8 | > 100 | > 100 | did not display any apoptotic effect | – | did not display any apoptotic effect
CCCCCC(CC(=O)CCc1ccc(O)c(OC)c1)OC (stereo not drawn) [M7, 5-methoxy-1-(4'-hydroxy-3'-methoxyphenyl)-decan-3-one] | > 100 | > 100 | – | > 100 | > 100 | – | – | –
CCCCCCCC(=O)CCc1ccc(O)c(O)c1 [M8, 1-(3',4'-dihydroxyphenyl)-decan-3-one] | > 100 | 58.8 | – | > 100 | > 100 | – | – | –
CCCCCCCC(O)CCc1ccc(O)c(OC)c1 (stereo not drawn) [M9, 1-(4'-hydroxy-3'-methoxyphenyl)-decan-3-ol] | 82.5 | 82.2 | – | > 100 | > 100 | – | – | –
CCCCCC(CC(=O)CCc1ccc(O)c(OC)c1)SC (stereo not drawn) [M10, 5-methylthio-1-(4'-hydroxy-3'-methoxyphenyl)-decan-3-one] | 60.6 | 78.2 | – | > 100 | > 100 | – | – | –

Now from value to compound, other results behind:

IC50 ([2]; Homo sapiens, NCI-H1299, 24 h) [µM] | IC50 [4] [µM] | IC50 [2] [µM] | SMILES | IC50 [1] [µM] | IC50 [3] [µM] | induction of apoptosis (TUNEL positive cells) (H-1299 cells) | induction of apoptosis (TUNEL positive cells) (HCT-116 cells; HCT-116, 6 hours of incubation) | induction of apoptosis (TUNEL positive cells) (HCT-116 cells; [5])
66.5 | 84 | – | CCCCCCCC(=O)CCc1ccc(O)c(OC)c1 [M11, 1-(4'-hydroxy-3'-methoxyphenyl)-decan-3-one] | > 100 | > 100 | – | – | –
69.9 | > 100 | – | CCCCCC(CC(O)CCc1ccc(O)c(OC)c1)SC (stereo not drawn) [M12, 5-methylthio-1-(4'-Hydroxy-3'-methoxyphenyl)-decan-3-ol] | > 100 | > 100 | – | – | –
47.8 | 45.5 | – | CCCCCC(CC(=O)CCc1ccc(O)c(OC)c1)SCC(NC(=O)CCC(N)C(=O)O)C(=O)NCC(=O)O (stereo not drawn) [M13, 5-glutathiol-[6]-shogaol] | 75.5 | 57.5 | Significant apoptosis | significantly higher levels of apoptosis | Significant apoptosis
74.4 | 71.2 | – | CCCCC[C@@H](CC(=O)CCc1ccc(O)c(OC)c1)SC[C@H](NC(=O)CC[C@H](N)C(=O)O)C(=O)NCC(=O)O [M13-1] | – | – | – | higher level of apoptosis | –
63.8 | 54.9 | – | CCCCC[C@H](CC(=O)CCc1ccc(O)c(OC)c1)SC[C@H](NC(=O)CC[C@H](N)C(=O)O)C(=O)NCC(=O)O [M13-2] | – | – | – | higher level of apoptosis | –
17.9 | 18.2 | – | CCCCC/C=C/C(=O)CCc1ccc(O)c(OC)c1 [[6]-shogaol] | 43.9 | 36.6 | significantly superior to that of both M2 and M13 | significantly higher levels of apoptosis | significantly superior to that of both M2 and M13
